Tests used:
CD73 [1] = target: T1, CD73 (Homo sapiens (Human), UniProt P21589); assay type: biochemical; settings: 1 mM NaH2PO4 in enzyme buffer, CD73 0.3 nM, AMP 15 uM
Method: Compound serial dilutions were pre-spotted into Thermo Nunc assay plate. 50 uL CD73 enzyme buffer (CD73 purchased from R&D system=0.6 nM, 25 mM Tris, pH 7.4, 5 mM MgCl2, 1 mM NaH2PO4) was added into the assay plate and incubate for 15 mins. […] After incubation for 60 mins, the supernatant (20 uL) was transferred into 384-well NUNC plate pre-filled with 60 uL Quench buffer (80% organic and 20% water+0.1% FA) with internal standard. The plate was spun down at 4500 rpm for 20 mins, then 20 uL of supernatant was transferred to another Nunc plate prefilled with 80 uL of water. The samples were analyzed using Rapid fire.

CD73 [2] = target: T1, CD73; assay: MDA-MB-231 Cell Based CD73 Activity Assay (DMEM); settings: MDA-MB-231-GFP cells, DMEM medium with 10% human plasma, 200 uM AMP
Method: MDA-MB-231 Cell Based CD73 Activity Assay (DMEM) MDA-MB-231-GFP cells were seeded in 384-well plates (Greiner 781946) at a density of 3000 cells per well in 50 μL of DMEM medium with 10% HP (human plasma). Cells were plated into assay plate with compounds pre-spotted, for an overnight compound treatment. 50 uL of 400 uM AMP (final concentration will be 200 uM) was added using Bio-tek dispenser. Plates were incubated for 100 mins. […] The samples were analyzed using Rapid fire.

T1 sequence (P21589 27-574): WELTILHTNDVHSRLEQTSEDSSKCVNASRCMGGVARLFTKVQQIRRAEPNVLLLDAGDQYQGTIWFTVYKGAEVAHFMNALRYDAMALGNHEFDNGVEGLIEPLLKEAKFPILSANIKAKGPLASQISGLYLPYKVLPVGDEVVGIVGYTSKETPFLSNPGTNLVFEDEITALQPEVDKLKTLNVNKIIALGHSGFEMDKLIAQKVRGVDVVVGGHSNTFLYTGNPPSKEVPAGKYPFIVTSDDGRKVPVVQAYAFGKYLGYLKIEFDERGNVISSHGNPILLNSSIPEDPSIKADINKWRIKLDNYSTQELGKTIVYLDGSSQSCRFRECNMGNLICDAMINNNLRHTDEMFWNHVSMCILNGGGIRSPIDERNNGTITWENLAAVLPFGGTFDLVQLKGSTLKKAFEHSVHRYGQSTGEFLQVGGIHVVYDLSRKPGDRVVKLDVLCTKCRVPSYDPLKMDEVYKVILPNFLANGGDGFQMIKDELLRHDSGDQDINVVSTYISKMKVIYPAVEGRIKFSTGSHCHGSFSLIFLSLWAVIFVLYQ

| IC50 (CD73 [1]) [nM] | EC50 (CD73 [2]) [nM] | Structure (SMILES) |
| --- | --- | --- |
| 3.34 | 7.61 | O=c1[nH]cc(-c2cc([C@H]3C[C@@H]3c3ccc(C(F)(F)F)cn3)c3nccn3n2)c(=O)[nH]1 (racemic) [Example 149, 5-(8-((1S,2S)-2-(5-(trifluoromethyl)pyridin-2-yl)cyclopropyl)imidazo[1,2-b]pyridazin-6-yl)pyrimidine-2,4(1H,3H)-dione and 5-(8-((1R,2R)-2-(5-(trifluoromethyl)pyridin-2-yl)cyclopropyl)imidazo[1,2-b]pyridazin-6-yl)pyrimidine-2,4(1H,3H)-dione] |
| 3.45 | 17.5 | O=c1[nH]cc(-c2cc([C@H]3C[C@@H]3c3ccc(C(F)(F)F)nc3)c3nccn3n2)c(=O)[nH]1 (racemic) [Example 152, 5-(8-((1S,2S)-2-(6-(trifluoromethyl)pyridin-3-yl)cyclopropyl)imidazo[1,2-b]pyridazin-6-yl)pyrimidine-2,4(1H,3H)-dione and 5-(8-((1R,2R)-2-(6-(trifluoromethyl)pyridin-3-yl)cyclopropyl)imidazo[1,2-b]pyridazin-6-yl)pyrimidine-2,4(1H,3H)-dione] |
| 85.2 | 191 | O=C(c1cn2nc(-c3c[nH]c(=O)[nH]c3=O)cc([C@H]3C[C@@H]3c3ccc(F)cc3)c2n1)N1CC(F)(F)C1 (racemic) [Example 198, 5-[2-(3,3-difluoroazetidine-1-carbonyl)-8-[(1S,2S)-2-(4-fluorophenyl)cyclopropyl]imidazo[1,2-b]pyridazin-6-yl]-1H-pyrimidine-2,4-dione] |
| > 250 | 755 | O=C(c1cn2nc(-c3c[nH]c(=O)[nH]c3=O)cc([C@H]3C[C@@H]3c3ccc(F)cc3)c2n1)N1CCC(F)(F)C1 (racemic) [Example 199, 5-[2-(3,3-difluoropyrrolidine-1-carbonyl)-8-[(1S,2S)-2-(4-fluorophenyl)cyclopropyl]imidazo[1,2-b]pyridazin-6-yl]-1H-pyrimidine-2,4-dione] |
| 1.79 | 50 | O=c1[nH]cc(-c2cc([C@H]3C[C@@H]3c3ccc4onc(C(F)(F)F)c4c3)c3nccn3n2)c(=O)[nH]1 (racemic) [Example 327, 5-(8-((1S,2S)-2-(3-(trifluoromethyl)benzo[d]isoxazol-5-yl)cyclopropyl)imidazo[1,2-b]pyridazin-6-yl)pyrimidine-2,4(1H,3H)-dione] |
| 2.83 | 11.2 | N#Cc1ccc([C@H]2C[C@@H]2c2cc(-c3c[nH]c(=O)[nH]c3=O)nn3c(F)cnc23)cn1 (racemic) [Example 375, 5-((1S,2S)-2-(6-(2,4-dioxo-1,2,3,4-tetrahydropyrimidin-5-yl)-3-fluoroimidazo[1,2-b]pyridazin-8-yl)cyclopropyl)picolinonitrile] |
| 1.63 | 0.13 | O=C1N(CC(F)(F)F)c2cc([C@H]3C[C@@H]3c3cc(-c4c[nH]c(=O)[nH]c4=O)nn4ccnc34)ccc2C12CC2 (racemic) [Example 382, 5-(8-((1S,2S)-2-(2′-oxo-1′-(2,2,2-trifluoroethyl)spiro[cyclopropane-1,3′-indolin]-6′-yl)cyclopropyl)imidazo[1,2-b]pyridazin-6-yl)pyrimidine-2,4(1H,3H)-dione] |
| 1.83 | 49.3 | O=c1[nH]cc(-c2cc([C@H]3C[C@@H]3c3ccc4cnn(-c5ccc(C(F)(F)F)cn5)c4c3)c3nccn3n2)c(=O)[nH]1 (racemic) [Example 383, 5-(8-((1S,2S)-2-(1-(5-(trifluoromethyl)pyridin-2-yl)-1H-indazol-6-yl)cyclopropyl)imidazo[1,2-b]pyridazin-6-yl)pyrimidine-2,4(1H,3H)-dione] |
| 2 | 0.24 | CC(C)c1nn(CC(F)(F)F)c2cc([C@H]3C[C@@H]3c3cc(-c4c[nH]c(=O)[nH]c4=O)nn4ccnc34)ccc12 (racemic) [Example 396, 5-(8-((1S,2S)-2-(3-isopropyl-1-(2,2,2-trifluoroethyl)-1H-indazol-6-yl)cyclopropyl)imidazo[1,2-b]pyridazin-6-yl)pyrimidine-2,4(1H,3H)-dione] |
| 2.76 | 15.2 | O=c1[nH]cc(-c2cc([C@@H]3[C@@H](c4ccc(F)c(F)c4)C3(F)F)c3nccn3n2)c(=O)[nH]1 (racemic) [Example 552, 5-(8-((1S,3S)-3-(3,4-difluorophenyl)-2,2-difluorocyclopropyl)imidazo[1,2-b]pyridazin-6-yl)pyrimidine-2,4(1H,3H)-dione] |
| 13.3 | 267 | O=c1[nH]cc(-c2cc([C@H]3C[C@@H]3c3ccccc3Cl)c3nccn3n2)c(=O)[nH]1 (racemic) [Example 555, 5-(8-((1S,2S)-2-(2-chlorophenyl)cyclopropyl)imidazo[1,2-b]pyridazin-6-yl)pyrimidine-2,4(1H,3H)-dione] |
| 3.41 | 14 | O=c1[nH]cc(-c2cc([C@H]3C[C@@H]3c3ccc(OC(F)F)cc3)c3nccn3n2)c(=O)[nH]1 (racemic) [Example 556, 5-(8-((1S,2S)-2-(4-(difluoromethoxy)phenyl)cyclopropyl)imidazo[1,2-b]pyridazin-6-yl)pyrimidine-2,4(1H,3H)-dione] |
| 2.53 | 31.3 | O=c1[nH]cc(-c2cc([C@H]3C[C@@H]3c3ccc(OCC(F)(F)F)cc3)c3nccn3n2)c(=O)[nH]1 (racemic) [Example 564, 5-(8-((1S,2S)-2-(4-(2,2,2-trifluoroethoxy)phenyl)cyclopropyl)imidazo[1,2-b]pyridazin-6-yl)pyrimidine-2,4(1H,3H)-dione] |
| 2.84 | 8.1 | O=c1[nH]cc(-c2cc([C@H]3C[C@@H]3c3ccc(Cl)nc3)c3nccn3n2)c(=O)[nH]1 (racemic) [Example 568, 5-(8-((1S,2S)-2-(6-chloropyridin-3-yl)cyclopropyl)imidazo[1,2-b]pyridazin-6-yl)pyrimidine-2,4(1H,3H)-dione] |
| 0.8 | 0.84 | Cc1nc2ccc([C@H]3C[C@@H]3c3cc(-c4c[nH]c(=O)[nH]c4=O)nn4ccnc34)cc2s1 (racemic) [Example 570, 5-(8-((1S,2S)-2-(2-methylbenzo[d]thiazol-6-yl)cyclopropyl)imidazo[1,2-b]pyridazin-6-yl)pyrimidine-2,4(1H,3H)-dione] |
| 0.73 | 17.3 | O=c1[nH]cc(-c2cc([C@H]3C[C@@H]3c3ccc(OCC(F)F)cc3)c3nccn3n2)c(=O)[nH]1 (racemic) [Example 574, 5-(8-((1S,2S)-2-(4-(2,2-difluoroethoxy)phenyl)cyclopropyl)imidazo[1,2-b]pyridazin-6-yl)pyrimidine-2,4(1H,3H)-dione] |
| 2.05 | 6.9 | O=c1[nH]cc(-c2cc([C@H]3C[C@@H]3c3ccc(Cl)cn3)c3nccn3n2)c(=O)[nH]1 (racemic) [Example 576, 5-(8-((1S,2S)-2-(5-chloropyridin-2-yl)cyclopropyl)imidazo[1,2-b]pyridazin-6-yl)pyrimidine-2,4(1H,3H)-dione] |
| 1.63 | 5.79 | Cc1nc2ccc([C@H]3C[C@@H]3c3cc(-c4c[nH]c(=O)[nH]c4=O)nn4c(F)cnc34)cc2s1 (racemic) [Example 580, 5-(3-fluoro-8-((1S,2S)-2-(2-methylbenzo[d]thiazol-6-yl)cyclopropyl)imidazo[1,2-b]pyridazin-6-yl)pyrimidine-2,4(1H,3H)-dione] |

— US20240043427A1 (Gilead Sciences, Inc., priority 2020, published 2024)
